Results: PubChem BioAssay AID1919005 (Molecular Pharmacology Branch, DTP, NCI, 2023)
pIC50: −log10 of the molar value.

Tested on: 855422-203-R-J1-PDC complex spheroid growth
Assay: Anticancer human tumor 855422-203-R-J1-PDC patient-derived bladder carcinoma cell line growth inhibition [AhR]
Conditions: for pIC50: curve of first compound; for viability, T/C: stronger effect = lower value
Description: Multicellular complex tumor spheroid response to aryl hydrocarbon receptor antagonists in combination with a variety of drugs and investigational agents in selected tumor cell lines
The current study was undertaken to assess response to aryl hydrocarbon receptor antagonists in combination with standard-of-care drugs and investigational agents in solid tumor complex spheroid models. Complex spheroids include a stromal component modeled by human endothelial cells (HUVEC) and fibroblasts modeled by human mesenchymal stem cells (MSCs). The concentration ranges selected for each drug and investigational agent were based upon clinically achievable concentrations if the clinical Cmax of the agent was known.
Compounds. The drugs and investigational agents: BAY 2416964 (NSC825713), GNF351 (NSC835774), CH-223191 (NSC835775), CPI-455 (NSC825282), aza-TdCyd (NSC777586), decitabine (NSC127716), belinostat (NSC758774), entinostat (NSC756642), pevonedistat (NSC761192), tazemetostat (NSC777109), talazoparib (NSC765396), olaparib (NSC753686), selinexor (NSC780203), nedisertib (M3814, NSC802822), bortezomib (NSC756655), venetoclax (NSC766270), doxorubicin (NSC123127), elimusertib (BAY189344, NSC800525), ceralasertib (AZD6738, NSC777638), TAK-243 (NSC785004), alisertib (NSC759677), etoposide (NSC141540), topotecan (NSC609699), eribulin (NSC707389), gemcitabine (NSC613327), carboplatin (NSC241240), cisplatin (NSC119875), and SN-38 (NSC673596) were obtained from the National Cancer Institute (NCI) Developmental Therapeutics Program Chemical Repository (32). The FDA-approved anticancer drug set is available from the Developmental Therapeutics Program at https://dtp.cancer.gov/organization/dscb/obtaining/available plates.htm. […] The stock solutions were prepared in dimethyl sulfoxide (DMSO, Sigma-Aldrich, St. Louis, MO, cat. D2650), except for the platinum compounds which were prepared in saline (Quality Biological, Gaithersburg, MD, cat. 114-055-101), at 800-fold the tested concentration and stored at -70 degrees C prior to their use. All drugs and investigational agents were tested over a range starting from a high concentration at or near the clinical Cmax and decreasing in half-log increments. If the clinical Cmax for an agent had not been determined, the highest concentration tested was 10 microM (Table 1).
Cell Culture. All cells were maintained in an incubator at 37 degrees C and 5% CO2 with 95% humidity. The PDC lines were cultured according to standard operating procedures established by the NCI PDMR (https://pdmr.cancer.gov). Briefly, all PDCs were thawed and cultured in Matrigel-coated flasks prepared with a working solution of 1X Ham's F-12 nutrient mix, without supplementation (Invitrogen, Waltham, MA, cat. 11765054), 100 U/mL penicillin-streptomycin (Invitrogen, cat. 15140122), and 2.5% Matrigel (Corning Inc., Corning, NY, cat. 354248) for the first three passages. All PDCs were cultured in complete DMEM/F-12 media containing advanced DMEM/F-12 (Invitrogen, cat. 12634028), 4.9% defined fetal bovine serum, heat inactivated (HyClone Laboratories Inc., Logan, UT, cat. SH30070.03HI), 389 ng/mL hydrocortisone (Sigma-Aldrich, cat. H4001), 9.7 ng/mL human EGF recombinant protein (Invitrogen, cat. PHG0313), 23.4 microg/mL adenine (Sigma-Aldrich, cat. A2786), 97.3 U/mL penicillin-streptomycin (Invitrogen, cat. 15140122), 1.9 mM L-glutamine (Invitrogen, cat. 25030081), and 9.7 microM Y-27632 dihydrochloride (Tocris Bioscience, Bristol, United Kingdom, cat. 1254). The PDCs were cultured in complete DMEM/F12 media without 10 microM Y-27632 dihydrochloride for at least two passages prior to the screen. The established cell lines NCI-H1341 and […] were cultured in DMEM/F-12, HEPES (Invitrogen, cat. 11330032), 5% defined fetal bovine serum (HyClone Laboratories Inc., cat. SH30070.03), ITS premix universal culture supplement [insulin (5 microg/mL), transferrin (5 microg/mL), and selenious acid (5 ng/mL)] […]

[1] = second compound 0.1 µM, first compound 0.0316 µM
[2] = second compound 0.1 µM, first compound 0.1 µM
[3] = second compound 0.1 µM, first compound 0.316 µM
[4] = second compound 0.1 µM, first compound 1 µM
[5] = second compound 0.1 µM, first compound 3.16 µM
[6] = second compound 0.1 µM, first compound 10 µM
[7] = second compound 0.316 µM, first compound 0.0316 µM
[8] = second compound 0.316 µM, first compound 0.1 µM
[9] = second compound 0.316 µM, first compound 0.316 µM
[10] = second compound 0.316 µM, first compound 1 µM
[11] = second compound 0.316 µM, first compound 3.16 µM
[12] = second compound 0.316 µM, first compound 10 µM
[13] = second compound 1 µM, first compound 0.0316 µM
[14] = second compound 1 µM, first compound 0.1 µM
[15] = second compound 1 µM, first compound 0.316 µM
[16] = second compound 1 µM, first compound 1 µM
[17] = second compound 1 µM, first compound 3.16 µM
[18] = second compound 1 µM, first compound 10 µM
[19] = second compound 3.16 µM, first compound 0.0316 µM
[20] = second compound 3.16 µM, first compound 0.1 µM
[21] = second compound 3.16 µM, first compound 0.316 µM
[22] = second compound 3.16 µM, first compound 1 µM
[23] = second compound 3.16 µM, first compound 3.16 µM
[24] = second compound 3.16 µM, first compound 10 µM
[25] = second compound 10 µM, first compound 0.0316 µM
[26] = second compound 10 µM, first compound 0.1 µM
[27] = second compound 10 µM, first compound 0.316 µM
[28] = second compound 10 µM, first compound 1 µM
[29] = second compound 10 µM, first compound 3.16 µM
[30] = second compound 10 µM, first compound 10 µM
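Also: spheroids exposed to agents for seven days before readout.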
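For viability, T/C in this document: percent of DMSO vehicle control luminescence viability.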

`COc1cc(Nc2ncc3c(n2)-c2ccc(Cl)cc2C(c2c(F)cccc2OC)=NC3)ccc1C(=O)O` + Cc1ccccc1N=Nc1ccc(NC(=O)c2ccnn2C)c(C)c1 gave a pIC50 (second compound 0.1 µM) of under 5.00, a pIC50 (second compound 0.316 µM) of under 5.00 and a pIC50 (second compound 1 µM) of under 5.00. It also gave a pIC50 (second compound 3.16 µM) of under 5.00, a pIC50 (second compound 10 µM) of under 5.00 and a viability, T/C [1] of 109%. It also gave a viability, T/C [2] of 108%, a viability, T/C [3] of 88.9% and a viability, T/C [4] of 85.1%. For the same compound, the viability, T/C [5] was 77.7%, the viability, T/C [6] was 73% and the viability, T/C [7] was 105%. For the same compound, the viability, T/C [8] was 109%, the viability, T/C [9] was 93.4% and the viability, T/C [10] was 92.8%. It also gave a viability, T/C [11] of 85.9%, a viability, T/C [12] of 68.7% and a viability, T/C [13] of 114%. The viability, T/C [14] was 113%, the viability, T/C [15] was 98.7% and the viability, T/C [16] was 84.3%. The viability, T/C [17] was 78.1%, the viability, T/C [18] was 76.8% and the viability, T/C [19] was 105%. For the same compound, the viability, T/C [20] was 106%, the viability, T/C [21] was 87.3% and the viability, T/C [22] was 79.4%. For the same compound, the viability, T/C [23] was 79.5%, the viability, T/C [24] was 68.3% and the viability, T/C [25] was 87.8%. For the same compound, the viability, T/C [26] was 88.8%, the viability, T/C [27] was 81.7% and the viability, T/C [28] was 89.7%. The viability, T/C [29] was 79.2% and the viability, T/C [30] was 71.2%.

`O=C(C=Cc1cccc(S(=O)(=O)Nc2ccccc2)c1)NO` + Cc1ccccc1N=Nc1ccc(NC(=O)c2ccnn2C)c(C)c1 gave a pIC50 (second compound 0.1 µM) of 5.40, a pIC50 (second compound 0.316 µM) of 5.37 and a pIC50 (second compound 1 µM) of 5.37. For the same compound, the pIC50 (second compound 3.16 µM) was 5.43, the pIC50 (second compound 10 µM) was 5.49 and the viability, T/C [1] was 104%. It also gave a viability, T/C [2] of 107%, a viability, T/C [3] of 109% and a viability, T/C [4] of 111%. For the same compound, the viability, T/C [5] was 61.7%, the viability, T/C [6] was 3.76% and the viability, T/C [7] was 105%. For the same compound, the viability, T/C [8] was 114%, the viability, T/C [9] was 111% and the viability, T/C [10] was 106%. The viability, T/C [11] was 65.2%, the viability, T/C [12] was 5.12% and the viability, T/C [13] was 97.9%. It also gave a viability, T/C [14] of 109%, a viability, T/C [15] of 111% and a viability, T/C [16] of 105%. For the same compound, the viability, T/C [17] was 66.2%, the viability, T/C [18] was 3.95% and the viability, T/C [19] was 96.8%. The viability, T/C [20] was 95.6%, the viability, T/C [21] was 104% and the viability, T/C [22] was 96.5%. The viability, T/C [23] was 58.1%, the viability, T/C [24] was 3.54% and the viability, T/C [25] was 87.2%. For the same compound, the viability, T/C [26] was 95.4%, the viability, T/C [27] was 88.7% and the viability, T/C [28] was 79.6%. It also gave a viability, T/C [29] of 51.3% and a viability, T/C [30] of 3.79%.
